Measured values from patent US20250339631A1, “CONTROLLED RELEASE OF […] A SOURCE MATERIAL STORED OVER TIME” (Syqe Medical Ltd., priority 2022, published 2025).

Key:
[1] = Stability of ground cannabis in Syqe cartridges stored at 30° C.; assay type: physicochemical; details: 30° C.±2° C., 65% RH, baseline to 6 months; one-way ANOVA
Protocol: Additionally, to assess the effects of a warmer temperature on MC, Syqe cartridges were stored post-production at an elevated temperature and humidity of 30° C.±2° C. (65% RH+5% RH). Three different growing batches were analyzed at baseline and at 1, 2, 4 and 6 months of storage.
(§1) Analysis of cannabis inflorescences for the main phytocannabinoids (CBDA, CBD, CBGA, CBN, THCA and THC) was performed as follows: 100 mg of ground Cannabis inflorescences were weighed in duplicate from one container and extracted with 25 mL methanol then sonicated for 40 min and centrifuged at 3000 rpm for 5 min. All samples were filtered through a 0.22 μm PP filter vail prior to analysis. The dilution and quantitation were preformed corresponding to calibration curves. The main six phytocannabinoids were analyzed by ultra-high-performance liquid chromatography (UHPLC: […]) system with a refrigerated auto-sampler, thermostatic column oven and ultraviolet detector, Waters ACQUITY UPLC H-Class. Chromatographic separation was achieved using UPLC column Waters Acquity C18, 1.7 μm particles, 2.1×150 mm maintained at 30° C. The phytocannabinoids were separated using a gradient elution with mobile phases of 0.1% (v/v) formic acid in double-distilled water (phase A) and acetonitrile (phase B), respectively. A constant flow rate of 0.4 mL/min was employed throughout. The gradient profile varied from 70% to 100% B in 10.5 min, held for 0.5 min in these conditions and then returned to the initial conditions.
(§2) For THC and CBD, the concentrations of the acid and its neutral counterpart were summed and reported as the total content. For example, the concentration of total THC […] was calculated as: Total THC=THCA * 0.877+THC, with 0.877 being the molar ratio between the two compounds that corrects for a change in the mass of THCA as a result of the loss of CO2 (decarboxylation). This is shown in FIG. 7A: “U-HPLC analysis of the Bedrocan cultivar”.
(§3) R software (V.1.1.463) with tidyverse (17) package was used to analyze changes in outcome measures by one way ANOVA test, using Fisher's exact test analysis. All analyses were followed by a Tukey post-hoc test for multiple comparison. Data are presented as Mean±95% confidence interval (CI). Differences were considered significant at the p<0.05 level.

[2] = Stability of ground MC powder stored under refrigeration, pre-packaging; assay type: physicochemical; details: 5° C.±2° C., baseline to 3 months post grinding; one-way ANOVA
Protocol: In the described experiment, Bedrocan strain MC powder was stored at 5° C.±2° C. with up to 12% relative humidity (RH) in a polypropylene container, sealed in an aluminum foil pouch (Oliver-Tolas Healthcare Packaging B.V.; Venray, Netherlands). In order to assess its stability during the handling and hold time, samples were taken from three separate growing batches and assayed at baseline and at 1, 2 and 3 months post grinding. Each sample was assayed for loss on drying (LOD), and of the concentrations of the major phytocannabinoids (CBDA, CBD, CBGA, CBN, THCA and THC).
as §1, §2, §3

[3] = Long-term stability of ground cannabis packaged in Syqe cartridges at room temperature; assay type: physicochemical; details: 25° C.±2° C., RH 60%±5%, baseline to 24 months; one-way ANOVA
Protocol: (§4) In some embodiments, once cartridges are produced, they are stored, distributed and used at RT. In order to assess the shelf life of such cartridges, a long-term stability study was performed, during which cartridges were stored at 25° C.±2° C. (RH 60%±5%) in a calibrated and certified stability chamber (Memmert Constant climate chamber HPP260). 9, 6, 9, 8, 7, 4 and 4 separate growing batches were tested at baseline and after 3, 6, 9, 12, 18 and 24 months, respectively. At each time point samples of the ground inflorescence within the cartridges were analyzed for LOD and for the amount (mg) of each of the major phytocannabinoids (CBDA, CBD, CBGA, CBN, THCA and THC). Of the same batches, THC aerosolized by the Syqe inhaler was analyzed at baseline and at 6, 9, 18 and 24 months.
as §1, §2, §3

[4] = Vaporization of THC and terpenes from ground cannabis heated to target temperatures; assay type: physicochemical; details: 135 mg ground cannabis; vaporized THC measured in the aerosol; targets 60-150° C.
Protocol: The vaporization plots in FIGS. 6A-B show results of an experiment performed by the inventors in which samples of 135 mg of ground cannabis were heated to several target temperatures, including 60° C., 70° C., 80° C., 90° C., 100° C., 110° C., 120° C., 130° C., 140° C. and 150° C. At each of the target temperatures, vaporized THC was measured in the aerosol. At each of the target temperatures, the residual mass of ground cannabis was analyzed using Gas Chromatography —Mass Spectrometry (GC/MS) to determine existence of terpenes, such as: Linalool, Isopulegol, Geraniol, Caryophyllene, 26.82 Humulene<alpha->and Nerolidol. The total terpenes residue (as remaining in the ground cannabis) is indicated by the dashed line in FIG. 6A. Based on the residual mass of terpenes, the released (vaporized) amount terpenes was calculated, by subtracting the measured residual mass from a respective reference mass.

[5] = THC dose aerosolized by the Syqe inhaler from stored cartridges; assay type: physicochemical; details: inhaler set to 500 μg THC, Mean±95% CI
Protocol: Methods: MC inflorescences were ground to a fine powder and the concentrations of the major phytocannabinoids therein were analyzed at different time points using ultra-high performance liquid chromatography (U-HPLC). Storage was done under different temperature and humidity conditions, before or after being packaged in Syqe cartridges. MC aerosolized by a the Syqe inhaler using Syqe cartridges stored for up to 2 years at 25° C. was analyzed for THC doses.
as §4
In some embodiments, the Syqe inhaler is preprogrammed with several distinct heating protocols. […]

[6] = after four years, room temperature (22 C), light or darkness (storage conditions A and B); cited from earlier work

Structure (SMILES)	change in phytocannabinoid amount [1]	change in phytocannabinoid concentration during the study period [2]	change in phytocannabinoid amount [3]	target temperature at which release started [4] [degrees C.]	aerosolized THC dose ([5]; 6 months at 25° C.) [µg]	aerosolized THC dose ([5]; BL) [µg]	THC degraded [6] [%]
CCCCCc1cc(O)c(C/C=C(\C)CCC=C(C)C)c(O)c1C(=O)O [CBGA, cannabigerolic acid]	decreased significantly	no significant change	decreased significantly	–	–	–	–
C=C(C)[C@@H]1CCC(C)=C[C@H]1c1c(O)cc(CCCCC)c(C(=O)O)c1O [CBDA, cannabidiolic acid]	–	no significant change	no significant change	–	–	–	–
CCCCCc1cc(O)c2c(c1)OC(C)(C)[C@@H]1CCC(C)=C[C@@H]21 [THC, (-)-Δ^9-trans-tetrahydrocannabinol]	increased significantly	no significant change	increased significantly	130	486.30 ± 50.56	484.76 ± 31.28	~100
CCCCCc1cc2c(c(O)c1C(=O)O)[C@@H]1C=C(C)CC[C@H]1C(C)(C)O2 (relative stereo) [THCA, (-)-Δ^9-trans-tetrahydrocannabinolic acid]	decreased significantly	no significant change	decreased significantly	–	–	–	–
CCCCCc1cc(O)c2c(c1)OC(C)(C)c1ccc(C)cc1-2 [CBN, Cannabinol]	increased significantly	no significant change	increased significantly	–	–	–	–
